Assay results as given in patent US12186304B2, “Method for treating cancer by combination of IAP inhibitor and modulator of immune checkpoint molecule” (ASCENTAGE PHARMA (SUZHOU) CO., LTD., priority 2018, dated 2025).

Assays:
[1] = tested on: murine A20 lymphoma cells; experiment: Subcutaneous xenograft model of murine A20 lymphoma; format: in vivo, female BALB/c mice; conditions: A20 s.c.
Description: • (1) APG-1387: provided by Jiangsu Ascentage Pharmaceutical Development Co., Ltd. The batch number is R12JA076140-A2 and PAPG-1387-DP-201305A. Preserved at 4° C., away from the light and sealed. APG-1387 was administered intravenously (i.v.) or intraperitoneally (i.p.) or at a dosage of 10 mL/kg. APG-1387 was dissolved in 5% castor oil/10% PEG400/85% normal saline. • (2) Anti-PD-1 antibody: purchased from BioXcell. The article number is BE0146 and BE0273. Preserved at 4° C. and sealed. The anti-PD-1 antibody was administered intraperitoneally at a concentration of 100 μg per mice or 200 μg per mice. • (3) Isotype control (anti-IgG): purchased from BioXcell, the product number is BE0089. Preserved at 4° C. and sealed. […]
The mice were injected subcutaneously with 0.5-10×10^6 cells or in the ovary with 6×10^6 cells in situ to build the tumor xenograft model. […] For the orthotopic model, tumor growth was measured by examining in vivo fluorescence images 10 days after inoculation. […] Body weight and tumor size were measured twice per week during the experiment. […]
The calculation of tumor related parameters is the same as set forth in Example 1. Using the fluorescence imaging technique, the strength of the fluorescent signal can represent the growth and metastasis of tumors in vivo. […]

CT26 colorectal cancer = experiment: Combination therapy in CT26 mouse colorectal cancer model; format: in vivo; conditions: for T/C (%) value on day 18 after administration: APG-1387 0.2 mg/kg i.v. once daily, docetaxel 8 mg/kg i.p. once weekly, anti-PD-1 200 μg/mouse i.p. twice weekly
Description: Cell inoculation method was used to establish a […] tumor-immunized normal mouse subcutaneous homograft tumor model: tumor cells in logarithmic growth phase were collected, counted, and then resuspended in 1×PBS. The concentration of the cell suspension was adjusted to 2.5-5×10^7/mL. Tumor cells, 5-10×10^6/0.2 mL/mouse, were inoculated subcutaneously in the right back of the immunized normal mouse with a 1 mL syringe ([…]). All animal experimental operations were strictly in accordance with standards for use and management of laboratory animals by Gima Gene Co., Ltd and Suzhou Yasheng Pharmaceutical Co., Ltd. Relevant parameters were calculated with reference to China's NMPA “Guidelines for Non-clinical Research Techniques of Cytotoxic Antitumor Drugs”.
Animal weight and tumor size were measured twice a week during the experiment. Animals were observed daily for status and the occurrence of death. Routine monitoring included the effects of tumor growth and treatment on the normal behaviors of animals, specifically including the activity, feeding and drinking, weight gain or loss, eyes, clothing hair, as well as other abnormalities of the laboratory animals. The deaths and clinical symptoms observed during the experiment were recorded in the original data. The whole process of administration, measurement of mouse weight and tumor volume was carried out in an ultra-clean bench. According to requirements of the experimental program, plasma and tumor tissue were collected, weighed and photographed for record after the end of last administration. Plasma and tumor samples were frozen at −80° C. for later use.
Tumor volume (TV) was calculated as TV=a×b^2/2, wherein a and b represented the length and width of tumor measurement, respectively.
Relative tumor volume (RTV) was calculated as RTV=Vt/V1, wherein V1 was the tumor volume at the time of grouping administration, and Vt was the tumor volume measured on day t after administration.
The evaluation index of anti-tumor activity was relative tumor proliferation rate T/C (%), and was calculated as: relative tumor proliferation rate T/C (%)=(TRTV/CRTV)×100%, wherein TRTV was RTV in treatment group, and CRTV was RTV in vehicle control group.
Tumor remission rate (%) was the number of SD (stable disease), PR (partial regression) and CR (complete regression) in tumor-bearing mice after treatment divided by the total number of mice in that group×100%. CR refers to the complete regression of the tumor, which means the tumor is inaccessible after treatment. PR refers to the partial regression of the tumor, which means tumor volume becomes smaller than before treatment. SD refers to stable tumor progression, which means tumor volume is the same as before treatment. Change of body weight (%)=(measurement of body weight−body weight when grouping)/body weight when grouping×100%.
Efficacy evaluation criteria: according to China's NMPA “Guidelines for Non-clinical Research Techniques of Cytotoxic Antitumor Drugs” (November 2006), T/C (%) value 40% and p<0.05 by statistical analysis were considered as efficacious. If the weight loss of mice exceeded 20%, or the drug-related death percentage exceeded 20%, the drug dose was considered to be severely toxic.
According to Clarke R., Issues in experimental design and endpoint analysis in the study of experimental cytotoxic agents in vivo in breast cancer and other models [J].
A tumor model of CT26 colorectal cancer mouse was established, and the combined anti-tumor effect of APG-1387 with anti-PD-1 antibody and docetaxel was evaluated on this model. The administration regimen was as follows:
APG-1387 monotherapy group: 0.2 mg/kg, intravenous injection, once daily for a total of 17 days;
Docetaxel monotherapy group: 8 mg/kg, intraperitoneal injection, once weekly for a total of 17 days;
Anti-PD-1 antibody monotherapy group: 200 μg/mouse, intraperitoneal injection, twice weekly for a total of 2.5 weeks (i.e., 17 days); […]

## CC(=O)O[C@@]12CO[C@@H]1C[C@H](O)[C@@]1(C)C(=O)[C@H](O)C3=C(C)[C@@H](OC(=O)[C@H](O)[C@@H](NC(=O)OC(C)(C)C)c4ccccc4)C[C@@](O)([C@@H](OC(=O)c4ccccc4)[C@H]21)C3(C)C [Docetaxel, docetaxel]
[1]
  anti-tumor effect on the 24th day after administration: not significant
CT26 colorectal cancer
  T/C (%) value on day 18 after administration: 66%
CT26 colorectal cancer; listed as docetaxel
  T/C (%) value on day 18 after administration: 66%
CT26 colorectal cancer; day 18
  Tumor remission rate on day 18 after administration (%): 25%
  Tumor remission rate on day 18 after administration: animals with SD/PR/CR per animals in group: 1/4 SD
CT26 colorectal cancer; day 18, listed as docetaxel
  Tumor remission rate on day 18 after administration: animals with SD/PR/CR per animals in group: ¼
